Reference: patent publication US12528838B2, “Cyclic dominant negative competence stimulating peptide analogs and methods of treating Streptococcus pneumoniae infections” (priority 2019, dated 2026)
Read-outs that look alike come from different tables or passages of the source. Bridge positions count the residues as written; N and C are the ends. Square brackets hold non-standard residues; d marks the D form. Peptide text beside a SMILES is read from it. Dab = NCC[C@H](N)C(=O)O; Dap = NC[C@H](N)C(=O)O

Columns and labels:
ComD2 receptor = ComD2 receptor (Streptococcus pneumoniae serotype 4, UniProt A0A0H2US84); assay: cell-based; format: cell-based
Excerpt: Biological evaluation of cyclic dnCSPs. […] All assays will be performed in triplicates and independently three times. Serial dilutions of dnCSPs will be conducted to determine the EC50 and IC50 values of promising dnCSPs through initial screening. Data from reporter assays will be analyzed using the GraphPad Prism software. The lead dnCSPs will be assessed for their therapeutic potential using multiple in vitro assays, including attenuation of ComX-induction (reporter systems), genetic transformation, allolysis (zymogram assays), and release of PLY (hemolysis & Western blots). Lastly, the pneumococcal competence system regulates biofilm formation, which is important for the pathogenesis of […]. The ability of the dnCSPs to inhibit biofilm formation will be evaluated after 24 hr of growth on 1% BSA coated coverslips placed in flat-bottom polystyrene tissue culture plates by staining with FilmTracer LIVE/DEAD Biofilm viability kit (Invitrogen, L10316), and visualized using a confocal microscope and Z-stacked to construct 3D-images.

ComD1 receptor = ComD1 receptor (Streptococcus pneumoniae serotype 2, UniProt A0A0H2ZM50); assay: cell-based; format: cell-based
Excerpt: Biological evaluation of cyclic dnCSPs. The cyclic dnCSPs will be assessed for inhibition of competence induction using the β-gal, lux (FIG. 11) or luc (FIG. 15) reporter systems we have optimized for the analysis of a large number of signal variants in 96-well plates. All assays will be performed in triplicates and independently three times. Serial dilutions of dnCSPs will be conducted to determine the EC50 and IC50 values of promising dnCSPs through initial screening. Data from reporter assays will be analyzed using the GraphPad Prism software. The lead dnCSPs will be assessed for their therapeutic potential using multiple in vitro assays, including attenuation of ComX-induction (reporter systems), genetic transformation, allolysis (zymogram assays), and release of PLY (hemolysis & Western blots). Lastly, the pneumococcal competence system regulates biofilm formation, which is important for the pathogenesis of […]. The ability of the dnCSPs to inhibit biofilm formation will be evaluated after 24 hr of growth on 1% BSA coated coverslips placed in flat-bottom polystyrene tissue culture plates by staining with FilmTracer LIVE/DEAD Biofilm viability kit (Invitrogen, L10316), and visualized using a confocal microscope and Z-stacked to construct 3D-images.

Sequence of ComD2 receptor (A0A0H2US84 entry or part of it): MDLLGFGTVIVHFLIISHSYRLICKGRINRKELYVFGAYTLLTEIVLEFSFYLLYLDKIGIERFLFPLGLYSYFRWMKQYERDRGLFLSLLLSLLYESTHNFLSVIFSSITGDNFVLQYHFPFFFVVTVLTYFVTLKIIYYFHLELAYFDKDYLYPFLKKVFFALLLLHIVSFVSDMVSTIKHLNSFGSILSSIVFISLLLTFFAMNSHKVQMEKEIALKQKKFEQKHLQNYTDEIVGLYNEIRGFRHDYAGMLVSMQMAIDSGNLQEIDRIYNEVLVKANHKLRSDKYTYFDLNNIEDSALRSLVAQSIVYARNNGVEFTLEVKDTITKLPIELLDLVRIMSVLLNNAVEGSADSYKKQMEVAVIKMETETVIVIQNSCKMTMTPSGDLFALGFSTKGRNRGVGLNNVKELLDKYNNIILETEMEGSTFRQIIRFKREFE
Sequence of ComD1 receptor (A0A0H2ZM50 entry or part of it): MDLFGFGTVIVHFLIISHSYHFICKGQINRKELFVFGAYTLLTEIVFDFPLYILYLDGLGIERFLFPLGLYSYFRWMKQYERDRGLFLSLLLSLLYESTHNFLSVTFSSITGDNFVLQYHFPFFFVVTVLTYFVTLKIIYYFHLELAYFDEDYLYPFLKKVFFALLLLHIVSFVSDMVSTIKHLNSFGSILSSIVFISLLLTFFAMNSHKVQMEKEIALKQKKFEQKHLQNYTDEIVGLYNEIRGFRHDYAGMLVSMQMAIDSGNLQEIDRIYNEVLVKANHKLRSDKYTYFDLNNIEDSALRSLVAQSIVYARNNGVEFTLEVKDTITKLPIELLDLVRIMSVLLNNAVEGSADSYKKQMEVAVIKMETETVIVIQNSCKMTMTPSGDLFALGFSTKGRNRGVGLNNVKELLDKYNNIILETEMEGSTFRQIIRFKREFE

Molecule `CC[C@H](C)[C@H](NC(=O)[C@H](Cc1ccccc1)NC(=O)[C@@H]1CCC(=O)NCC[C@H](NC(=O)[C@H](CO)NC(=O)[C@H](CC(C)C)NC(=O)[C@H](CCCNC(=N)N)NC(=O)[C@H](CCSC)NC(=O)[C@H](C)N)C(=O)N[C@@H](Cc2ccccc2)C(=O)N[C@@H](Cc2ccccc2)C(=O)N[C@@H](CCCNC(=N)N)C(=O)N1)C(=O)N[C@@H](CC(C)C)C(=O)N[C@@H](CCC(N)=O)C(=O)N[C@@H](CCCNC(=N)N)C(=O)N[C@@H](CCCCN)C(=O)N[C@@H](CCCCN)C(=O)O` [CSP1-E1A-cyc(Dab6E10), A-M-R-L-S-(Dab-F-F-R-E)-F-I-L-Q-R-K-K] (H-AMRLS[Dab]FFREFILQRKK-OH; lactam 6-10; N-terminus and C-terminus assumed) has an IC50 (ComD2 receptor) greater than 1000 nM, an IC50 (ComD2 receptor; read-out: ComD2 IC50 (95% CI), Table 2, β-gal reporter, IC50 values in italic font) greater than 1000 nM and an IC50 (ComD1 receptor) of 173 nM.
For `CC[C@H](C)[C@H](NC(=O)[C@H](Cc1ccccc1)NC(=O)[C@@H]1CCC(=O)NC[C@H](NC(=O)[C@H](CO)NC(=O)[C@H](CC(C)C)NC(=O)[C@H](CCCNC(=N)N)NC(=O)[C@H](CCSC)NC(=O)[C@H](C)N)C(=O)N[C@@H](Cc2ccccc2)C(=O)N[C@@H](Cc2ccccc2)C(=O)N[C@@H](CCCNC(=N)N)C(=O)N1)C(=O)N[C@@H](CC(C)C)C(=O)N[C@@H](CCC(N)=O)C(=O)N[C@@H](CCCNC(=N)N)C(=O)O` [CSP1-E1A-des-K16K17-cyc(Dap6E10), A-M-R-L-S-(Dap-F-F-R-E)-F-I-L-Q-R] (H-AMRLS[Dap]FFREFILQR-OH; lactam 6-10; N-terminus and C-terminus assumed), the IC50 (ComD2 receptor) was 67.2 nM, the “higher inhibition potency against the ComD2 receptor compared to parent CSP1-E1A-cyc(Dap6E10)” value (ComD2 receptor) was 3 fold and the IC50 (ComD1 receptor) was 7.57 nM. For the same molecule, the “higher inhibition potency against the ComD1 receptor compared to parent CSP1-E1A-cyc(Dap6E10)” value (ComD1 receptor) was roughly 10 fold.
For `CC[C@H](C)[C@H](NC(=O)[C@H](Cc1ccccc1)NC(=O)[C@@H]1CCC(=O)NCC[C@H](NC(=O)[C@H](CO)NC(=O)[C@H](CC(C)C)NC(=O)[C@H](CCCNC(=N)N)NC(=O)[C@H](CCSC)NC(=O)[C@@H](N)CCC(=O)O)C(=O)N[C@@H](Cc2ccccc2)C(=O)N[C@@H](Cc2ccccc2)C(=O)N[C@@H](CCCNC(=N)N)C(=O)N1)C(=O)N[C@@H](CC(C)C)C(=O)N[C@@H](CCC(N)=O)C(=O)N[C@@H](CCCNC(=N)N)C(=O)N[C@@H](CCCCN)C(=O)N[C@@H](CCCCN)C(=O)O` [CSP1-cyc(Dab6E10)] (H-EMRLS[Dab]FFREFILQRKK-OH; lactam 6-10; N-terminus and C-terminus assumed), the EC50 (ComD2 receptor) was 31.4 nM, the EC50 (ComD1 receptor) was 12.2 nM and the “maximal induction of comX compared to CSP1” value (ComD1 receptor; ComD1) was 100%. For the same molecule, the “potency higher than CSP1-cyc(Orn6D10)” value (ComD1 receptor; ComD1) was 10 fold.
`CC[C@H](C)[C@@H]1NC(=O)[C@H](Cc2ccccc2)NC(=O)[C@@H](NC(=O)[C@H](CCCNC(=N)N)NC(=O)[C@H](Cc2ccccc2)NC(=O)[C@H](Cc2ccccc2)NC(=O)[C@H](CCCCN)NC(=O)[C@H](CO)NC(=O)[C@H](CC(C)C)NC(=O)[C@H](CCCNC(=N)N)NC(=O)[C@H](CCSC)NC(=O)[C@@H](N)CCC(=O)O)CCCCNC(=O)C[C@@H](C(=O)N[C@@H](CCCNC(=N)N)C(=O)N[C@@H](CCCCN)C(=O)N[C@@H](CCCCN)C(=O)O)NC(=O)[C@H](CC(C)C)NC1=O` [CSP1-cyc(K10D14)] (H-EMRLSKFFRKFILDRKK-OH; lactam 10-14; N-terminus and C-terminus assumed) was tested, and the EC50 (ComD1 receptor) was 257 nM.
CSP1-E1AK6A (AMRLSAFFRDFILQRKK) was tested, and the “inhibition of ComD receptors” value (ComD1 receptor) was “could only strongly inhibit the ComD1 receptor”.
